Laboratory results taken from ChEMBL document CHEMBL4507276 (2021).

How the values were obtained:
[1] = target: Type-2 angiotensin II receptor (Homo sapiens) (UniProt P50052); assay: AT2/H Cerep selectivity data (BI); settings: Compound concentration 20.0 uM
[2] = target: Chloride channel protein 1 (Rattus norvegicus) (UniProt P35524); assay: CL-CHANNEL/R Cerep selectivity data (BI); settings: Compound concentration 20.0 uM
[3] = target: Vasoactive intestinal polypeptide receptor 1 (Homo sapiens) (UniProt P32241); assay: VIP1/VPAC1/H Cerep selectivity data (BI); settings: Compound concentration 20.0 uM
Chain of Vasoactive intestinal polypeptide receptor 1 (Homo sapiens) (P32241 whole entry): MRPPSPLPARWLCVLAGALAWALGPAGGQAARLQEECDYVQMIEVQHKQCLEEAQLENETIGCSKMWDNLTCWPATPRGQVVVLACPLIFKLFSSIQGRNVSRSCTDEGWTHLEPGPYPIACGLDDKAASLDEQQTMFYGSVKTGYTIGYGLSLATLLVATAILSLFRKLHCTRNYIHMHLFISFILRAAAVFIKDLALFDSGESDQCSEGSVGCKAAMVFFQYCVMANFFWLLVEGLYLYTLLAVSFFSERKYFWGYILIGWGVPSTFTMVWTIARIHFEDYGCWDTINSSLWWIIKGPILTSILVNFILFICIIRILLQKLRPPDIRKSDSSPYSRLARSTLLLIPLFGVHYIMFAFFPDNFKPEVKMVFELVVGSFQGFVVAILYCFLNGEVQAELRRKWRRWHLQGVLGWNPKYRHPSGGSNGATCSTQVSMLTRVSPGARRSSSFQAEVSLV

[4] = target: Adenosine receptor A2a (Homo sapiens) (UniProt P29274); assay: A2A/HU Eurofins-Panlabs selectivity data (BI); settings: Compound concentration 10.0 uM
[5] = target: Alpha-1D adrenergic receptor (Homo sapiens) (UniProt P25100); assay: ALPHA1D/H Eurofins-Panlabs selectivity data (BI); settings: Compound concentration 10.0 uM
Chain of Alpha-1D adrenergic receptor (Homo sapiens) (P25100 whole entry): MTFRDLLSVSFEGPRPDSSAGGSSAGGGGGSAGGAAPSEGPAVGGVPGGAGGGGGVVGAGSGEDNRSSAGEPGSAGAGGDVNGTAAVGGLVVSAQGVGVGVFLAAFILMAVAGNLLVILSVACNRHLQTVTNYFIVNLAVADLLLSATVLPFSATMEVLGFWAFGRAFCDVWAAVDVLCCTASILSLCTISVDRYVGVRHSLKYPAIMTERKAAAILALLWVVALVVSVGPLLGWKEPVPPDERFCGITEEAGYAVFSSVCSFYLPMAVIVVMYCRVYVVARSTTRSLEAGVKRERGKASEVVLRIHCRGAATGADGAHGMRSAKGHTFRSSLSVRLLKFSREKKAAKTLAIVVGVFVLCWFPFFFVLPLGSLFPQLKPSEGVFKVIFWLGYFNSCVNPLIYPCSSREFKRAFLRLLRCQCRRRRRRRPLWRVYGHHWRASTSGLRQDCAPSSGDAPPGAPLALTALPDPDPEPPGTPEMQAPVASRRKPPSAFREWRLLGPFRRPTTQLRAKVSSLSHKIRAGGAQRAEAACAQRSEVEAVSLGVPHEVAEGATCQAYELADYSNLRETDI

[6] = target: Protein kinase C alpha type (Mus musculus) (UniProt P20444); assay: PHORBOLE/M Eurofins-Panlabs selectivity data (BI); settings: Compound concentration 10.0 uM
[7] = target: ALK tyrosine kinase receptor (Homo sapiens) (UniProt Q9UM73); assay: ALK Invitrogen selectivity data (BI); settings: Compound concentration 3.0 uM
[8] = target: CDK8/Cyclin C (Homo sapiens) (UniProt P49336+P24863); assay: CDK8_CYCLINC Invitrogen selectivity data (BI); assay type: protein-complex assay; settings: Compound concentration 3.0 uM
[9] = target: Casein kinase I isoform delta (Homo sapiens) (UniProt P48730); assay: CSNK1D Invitrogen selectivity data (BI); settings: Compound concentration 3.0 uM
[10] = target: Vascular endothelial growth factor receptor 3 (Homo sapiens) (UniProt P35916); assay: FLT4 Invitrogen selectivity data (BI); settings: Compound concentration 3.0 uM
Chain of Vascular endothelial growth factor receptor 3 (Homo sapiens) (P35916 whole entry): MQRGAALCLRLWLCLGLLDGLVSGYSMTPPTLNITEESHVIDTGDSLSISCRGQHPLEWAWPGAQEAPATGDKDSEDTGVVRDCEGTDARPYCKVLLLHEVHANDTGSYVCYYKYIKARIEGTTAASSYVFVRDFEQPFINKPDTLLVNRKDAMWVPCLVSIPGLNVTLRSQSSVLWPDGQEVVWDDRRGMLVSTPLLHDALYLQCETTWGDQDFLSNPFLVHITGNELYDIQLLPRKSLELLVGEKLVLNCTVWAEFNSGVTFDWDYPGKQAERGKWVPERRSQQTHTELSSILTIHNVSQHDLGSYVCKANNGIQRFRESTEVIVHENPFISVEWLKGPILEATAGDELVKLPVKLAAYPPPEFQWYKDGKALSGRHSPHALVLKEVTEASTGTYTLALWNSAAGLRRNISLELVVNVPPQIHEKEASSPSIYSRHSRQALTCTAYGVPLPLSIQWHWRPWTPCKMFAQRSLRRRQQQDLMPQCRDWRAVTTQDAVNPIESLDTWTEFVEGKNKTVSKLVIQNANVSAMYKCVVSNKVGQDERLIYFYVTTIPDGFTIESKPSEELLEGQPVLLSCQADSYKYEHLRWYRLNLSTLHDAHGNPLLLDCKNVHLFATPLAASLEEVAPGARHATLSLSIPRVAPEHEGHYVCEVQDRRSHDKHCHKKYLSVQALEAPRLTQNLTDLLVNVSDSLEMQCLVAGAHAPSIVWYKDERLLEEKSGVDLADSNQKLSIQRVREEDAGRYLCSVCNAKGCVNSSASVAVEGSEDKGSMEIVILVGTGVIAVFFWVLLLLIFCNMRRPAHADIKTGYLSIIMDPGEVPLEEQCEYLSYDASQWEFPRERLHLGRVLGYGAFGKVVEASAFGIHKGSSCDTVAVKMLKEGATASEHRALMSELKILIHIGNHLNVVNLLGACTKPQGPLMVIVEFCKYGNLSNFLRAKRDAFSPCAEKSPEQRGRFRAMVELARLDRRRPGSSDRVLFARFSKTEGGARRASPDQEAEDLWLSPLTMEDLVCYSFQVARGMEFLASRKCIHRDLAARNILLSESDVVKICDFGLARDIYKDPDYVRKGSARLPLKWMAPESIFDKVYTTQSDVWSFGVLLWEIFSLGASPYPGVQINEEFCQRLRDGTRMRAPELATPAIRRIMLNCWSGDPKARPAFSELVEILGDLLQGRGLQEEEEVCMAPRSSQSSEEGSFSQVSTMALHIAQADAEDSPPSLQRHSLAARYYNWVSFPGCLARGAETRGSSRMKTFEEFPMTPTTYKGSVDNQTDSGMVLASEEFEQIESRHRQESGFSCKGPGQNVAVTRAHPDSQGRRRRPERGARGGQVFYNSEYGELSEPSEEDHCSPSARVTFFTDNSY

[11] = target: G protein-coupled receptor kinase 4 (Homo sapiens) (UniProt P32298); assay: GRK4 Invitrogen selectivity data (BI); settings: Compound concentration 3.0 uM
[12] = target: Insulin-like growth factor 1 receptor (Homo sapiens) (UniProt P08069); assay: IGF1R Invitrogen selectivity data (BI); settings: Compound concentration 3.0 uM
Chain of Insulin-like growth factor 1 receptor (Homo sapiens) (P08069 31-736 limits assumed): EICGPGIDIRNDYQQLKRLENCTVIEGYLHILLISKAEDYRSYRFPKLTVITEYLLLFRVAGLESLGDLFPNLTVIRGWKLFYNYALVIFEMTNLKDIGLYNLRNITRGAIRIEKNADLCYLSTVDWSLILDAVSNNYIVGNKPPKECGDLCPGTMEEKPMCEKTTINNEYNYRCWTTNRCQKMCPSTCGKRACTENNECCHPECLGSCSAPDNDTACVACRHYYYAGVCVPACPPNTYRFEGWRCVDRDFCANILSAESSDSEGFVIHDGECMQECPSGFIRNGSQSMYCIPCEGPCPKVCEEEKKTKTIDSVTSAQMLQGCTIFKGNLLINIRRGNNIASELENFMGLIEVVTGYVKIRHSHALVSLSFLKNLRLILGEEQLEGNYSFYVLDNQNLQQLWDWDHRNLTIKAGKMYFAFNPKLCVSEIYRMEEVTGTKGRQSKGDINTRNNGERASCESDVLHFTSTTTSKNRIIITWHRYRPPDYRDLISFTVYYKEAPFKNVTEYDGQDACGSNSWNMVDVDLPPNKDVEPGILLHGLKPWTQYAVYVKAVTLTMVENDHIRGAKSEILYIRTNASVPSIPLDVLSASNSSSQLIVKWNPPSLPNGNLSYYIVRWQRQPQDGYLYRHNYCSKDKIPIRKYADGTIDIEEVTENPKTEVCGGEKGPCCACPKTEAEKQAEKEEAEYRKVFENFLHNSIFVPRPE
Chain of Insulin-like growth factor 1 receptor (Homo sapiens) (P08069 741-1367 limits assumed): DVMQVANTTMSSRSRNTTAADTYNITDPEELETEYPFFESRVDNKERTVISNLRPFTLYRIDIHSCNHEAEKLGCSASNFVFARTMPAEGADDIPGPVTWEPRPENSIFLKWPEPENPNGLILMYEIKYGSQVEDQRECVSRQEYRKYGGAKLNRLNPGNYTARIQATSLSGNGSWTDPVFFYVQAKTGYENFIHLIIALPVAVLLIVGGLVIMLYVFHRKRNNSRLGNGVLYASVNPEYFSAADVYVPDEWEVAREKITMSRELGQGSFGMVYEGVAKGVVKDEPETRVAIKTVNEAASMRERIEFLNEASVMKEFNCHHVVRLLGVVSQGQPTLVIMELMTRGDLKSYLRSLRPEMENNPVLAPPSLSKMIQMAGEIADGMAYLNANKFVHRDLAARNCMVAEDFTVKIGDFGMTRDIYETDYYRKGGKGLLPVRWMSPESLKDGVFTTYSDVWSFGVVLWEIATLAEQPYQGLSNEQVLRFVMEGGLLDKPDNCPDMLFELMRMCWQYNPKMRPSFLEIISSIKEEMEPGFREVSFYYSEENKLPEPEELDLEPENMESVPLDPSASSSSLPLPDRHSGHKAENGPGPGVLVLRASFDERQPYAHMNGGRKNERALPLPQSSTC

[13] = target: T1, Interleukin-1 receptor-associated kinase 4 (Homo sapiens) (UniProt Q9NWZ3); assay: IRAK4 Invitrogen selectivity data (BI); settings: Compound concentration 3.0 uM
T1 sequence (whole entry): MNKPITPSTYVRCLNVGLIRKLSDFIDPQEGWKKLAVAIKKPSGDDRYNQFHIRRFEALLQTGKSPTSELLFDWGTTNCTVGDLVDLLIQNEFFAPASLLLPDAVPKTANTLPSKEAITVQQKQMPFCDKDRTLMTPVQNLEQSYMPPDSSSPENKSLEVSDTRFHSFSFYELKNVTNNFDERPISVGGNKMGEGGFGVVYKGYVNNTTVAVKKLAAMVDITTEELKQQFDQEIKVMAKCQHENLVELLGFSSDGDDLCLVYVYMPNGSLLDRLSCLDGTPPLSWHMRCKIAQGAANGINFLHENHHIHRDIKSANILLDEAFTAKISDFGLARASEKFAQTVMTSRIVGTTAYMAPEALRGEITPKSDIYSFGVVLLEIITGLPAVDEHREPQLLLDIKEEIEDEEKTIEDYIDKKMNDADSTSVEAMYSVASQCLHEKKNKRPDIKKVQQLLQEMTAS

[14] = target: Leucine-rich repeat serine/threonine-protein kinase 2 (Homo sapiens) (UniProt Q5S007); assay: LRRK2 Invitrogen selectivity data (BI); settings: Compound concentration 3.0 uM
[15] = target: T2, Serine/threonine-protein kinase Nek1 (Homo sapiens) (UniProt Q96PY6); assay: NEK1 Invitrogen selectivity data (BI); settings: Compound concentration 3.0 uM
T2 sequence (whole entry): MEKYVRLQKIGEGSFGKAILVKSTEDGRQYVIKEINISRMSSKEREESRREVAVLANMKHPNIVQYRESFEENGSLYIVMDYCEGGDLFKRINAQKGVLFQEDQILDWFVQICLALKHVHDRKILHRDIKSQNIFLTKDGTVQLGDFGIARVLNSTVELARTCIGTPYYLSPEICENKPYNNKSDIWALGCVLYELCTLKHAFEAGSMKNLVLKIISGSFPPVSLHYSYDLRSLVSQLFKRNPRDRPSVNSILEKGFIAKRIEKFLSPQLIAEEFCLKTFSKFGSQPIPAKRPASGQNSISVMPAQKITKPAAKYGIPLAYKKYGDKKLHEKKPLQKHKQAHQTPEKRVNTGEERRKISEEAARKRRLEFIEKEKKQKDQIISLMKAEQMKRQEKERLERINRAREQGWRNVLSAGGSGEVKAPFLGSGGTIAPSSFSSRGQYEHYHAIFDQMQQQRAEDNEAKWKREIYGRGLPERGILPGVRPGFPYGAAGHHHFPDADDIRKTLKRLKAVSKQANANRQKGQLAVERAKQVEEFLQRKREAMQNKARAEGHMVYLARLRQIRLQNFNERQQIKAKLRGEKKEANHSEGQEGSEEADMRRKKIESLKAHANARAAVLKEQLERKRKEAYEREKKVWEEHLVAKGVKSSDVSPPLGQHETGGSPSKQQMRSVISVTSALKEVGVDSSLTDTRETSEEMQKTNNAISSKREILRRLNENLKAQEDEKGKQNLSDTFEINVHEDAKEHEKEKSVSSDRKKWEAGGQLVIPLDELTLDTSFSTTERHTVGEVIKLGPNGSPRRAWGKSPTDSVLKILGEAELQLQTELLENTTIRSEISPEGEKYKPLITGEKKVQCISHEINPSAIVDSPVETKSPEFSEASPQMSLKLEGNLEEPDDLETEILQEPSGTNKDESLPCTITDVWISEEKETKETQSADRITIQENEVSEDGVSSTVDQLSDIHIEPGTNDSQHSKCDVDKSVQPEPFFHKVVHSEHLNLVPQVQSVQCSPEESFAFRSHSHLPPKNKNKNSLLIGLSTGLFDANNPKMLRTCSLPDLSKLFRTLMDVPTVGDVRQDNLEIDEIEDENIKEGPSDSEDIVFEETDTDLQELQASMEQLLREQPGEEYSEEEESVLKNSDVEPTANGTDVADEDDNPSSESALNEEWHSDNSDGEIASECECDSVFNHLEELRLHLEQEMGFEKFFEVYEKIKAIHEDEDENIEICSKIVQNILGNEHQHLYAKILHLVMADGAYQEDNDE

[16] = target: Phosphatidylinositol 4-phosphate 3-kinase C2 domain-containing subunit alpha (Homo sapiens) (UniProt O00443); assay: PIK3C2A Invitrogen selectivity data (BI); settings: Compound concentration 3.0 uM
[17] = target: Receptor-interacting serine/threonine-protein kinase 2 (Homo sapiens) (UniProt O43353); assay: RIPK2 Invitrogen selectivity data (BI); settings: Compound concentration 3.0 uM
[18] = target: Sphingosine kinase 1 (Homo sapiens) (UniProt Q9NYA1); assay: SPHK1 Invitrogen selectivity data (BI); settings: Compound concentration 3.0 uM
[19] = target: Non-receptor tyrosine-protein kinase TYK2 (Homo sapiens) (UniProt P29597); assay: TYK2 Invitrogen selectivity data (BI); settings: Compound concentration 3.0 uM
[20] = target: MAP/microtubule affinity-regulating kinase 3 (Homo sapiens) (UniProt P27448); assay: MARK3 Invitrogen selectivity data (BI); settings: Compound concentration 3.0 uM
Chain of MAP/microtubule affinity-regulating kinase 3 (Homo sapiens) (P27448 whole entry, looked up): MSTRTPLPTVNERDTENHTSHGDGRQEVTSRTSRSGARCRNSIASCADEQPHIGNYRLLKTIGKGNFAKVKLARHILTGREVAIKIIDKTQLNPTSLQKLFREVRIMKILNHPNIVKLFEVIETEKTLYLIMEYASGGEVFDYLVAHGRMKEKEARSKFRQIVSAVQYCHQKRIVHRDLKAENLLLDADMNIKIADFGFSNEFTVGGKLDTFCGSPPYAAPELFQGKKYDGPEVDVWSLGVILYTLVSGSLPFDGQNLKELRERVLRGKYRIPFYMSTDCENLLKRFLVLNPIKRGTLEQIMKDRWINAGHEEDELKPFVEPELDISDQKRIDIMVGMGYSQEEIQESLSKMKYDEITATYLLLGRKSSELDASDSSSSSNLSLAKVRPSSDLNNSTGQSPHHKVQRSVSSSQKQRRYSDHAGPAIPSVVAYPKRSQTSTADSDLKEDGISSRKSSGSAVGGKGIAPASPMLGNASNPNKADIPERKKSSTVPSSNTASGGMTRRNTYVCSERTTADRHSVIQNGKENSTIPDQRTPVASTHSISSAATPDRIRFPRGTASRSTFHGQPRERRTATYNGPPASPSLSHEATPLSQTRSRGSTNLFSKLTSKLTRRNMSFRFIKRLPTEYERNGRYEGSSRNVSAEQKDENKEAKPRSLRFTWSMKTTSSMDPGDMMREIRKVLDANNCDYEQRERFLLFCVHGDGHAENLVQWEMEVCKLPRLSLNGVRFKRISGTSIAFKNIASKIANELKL

Measured: residual activity

Chain of Type-2 angiotensin II receptor (Homo sapiens) (P50052 whole entry): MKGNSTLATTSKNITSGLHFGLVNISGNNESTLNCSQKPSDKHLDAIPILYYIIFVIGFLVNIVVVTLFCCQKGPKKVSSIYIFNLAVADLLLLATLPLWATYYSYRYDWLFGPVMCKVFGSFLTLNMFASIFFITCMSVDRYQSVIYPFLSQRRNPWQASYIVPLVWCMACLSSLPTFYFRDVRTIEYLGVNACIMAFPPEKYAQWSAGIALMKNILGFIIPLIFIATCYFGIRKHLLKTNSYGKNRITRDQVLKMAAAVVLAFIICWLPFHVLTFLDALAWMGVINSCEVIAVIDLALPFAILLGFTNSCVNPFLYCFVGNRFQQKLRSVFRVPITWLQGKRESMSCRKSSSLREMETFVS

CN(C)C(=O)Cn1cc(-c2nc([C@@](C)(c3ccc(-c4cnc(N)nc4)cc3)C3CC3)no2)cn1 [BI 665915]
inactive: [1] 98% | [2] 88% | [3] 109% | [4] 105% | [5] 107% | [6] 104% | [7] 97% | [8] 94% | [9] 97% | [10] 69.5% | [11] 102% | [12] 99.5% | [13] 102% | [14] 96% | [15] 104% | [16] 104% | [17] 91% | [18] 95.5% | [19] 97.5% | [20] 98%
